These results are taken from US20140248212A1, “NON-IMMUNOGENIC POSITRON EMISSION TOMOGRAPHY REPORTER GENE SYSTEMS” (THE REGENTS OF THE UNIVERSITY OF CALIFORNIA, priority 2011, published 2014).

Series [1] is described as follows: Human whole-body PET/CT biodistribution of PET reporter probes. The format is in vivo. The following applies: for accumulation in myocardium / heart and liver: healthy volunteers; for intestinal / GI tract activity compared with 18F-FHBG / tracer background within abdomen and pelvis: human; for tracer background within abdomen and pelvis: whole-body PET/CT. An excerpt: All studies involving human volunteers were approved. A healthy person and a healthy volunteer were recruited for the L-^18F-FMAU biodistribution study. Each volunteer received a bolus intravenous injection of ˜56 MBq (1.5 mCi) sterile L-^18F-FMAU and had four consecutive whole-body (starting from just above the head to above the knees, 6 bed positions, 5-min scan at each bed position) PET scans (Biograph 64, Siemens), with the first scan starting shortly after intravenous injection of L-^18F-FMAU. A low dose CT scan was also obtained for attenuation correction. Volunteers urinated after all scans had been performed. The region of interest analysis was performed to measure mean standard uptake values of L-^18F-FMAU in major organs/tissues. To illustrate the biodistribution of ^18F-FHBG, unpublished scan from a previous study (see, e.g. Yaghoubi, S. S., et al. (2009) Nat. Clin. Pract. Oncol. 6, 53-58) was used.

The test system of series [2] is L1210 tumors expressing TK2-N93D/L109F. Description: microPET/CT of SCID mice bearing L1210-PRG tumors (TK2-N93D/L109F). Format: in vivo. Here is the method:
(§1) Animal studies were approved and carried out according to specific guidelines. C57/BL6 mice were injected with the indicated probe and underwent micro-PET/CT analyses at 1- and 3-h post probe injection (Inveon, Siemens Medical Solutions USA Inc.; microCAT; Imtek Inc.). For tumor imaging studies, SCID mice were injected subcutaneously on day −7 in the right and left flanks with 1×10^6 L1210-PRG-expressing cells in 50% v/v phosphate-buffered saline and 50% v/v Matrigel™ (BD Biosciences). For imaging experiments, mice were kept warm and under gas anesthesia (2% v/v isoflurane) and were injected intravenously with 200 μCi of ^18F-labeled probes. A 3-h interval was allowed between probe administration and microPET/CT scanning Static microPET images were acquired for 600 s. Image data were evaluated in three-dimensional histograms and reconstructed with a zoom factor of 2.1 using three-dimensional ordered set expectation maximization (OSEM) with 2 iterations followed by MAP (maximum a posteriori) reconstruction with 18 iterations (beta=0.1). Images were analyzed using OsiriX Imaging Software Version 3.8.
Mice implanted with L1210 cells expressing TK2-based PRGs were scanned by microPET/CT using L-^18F-FMAU (FIG. 30A). For comparison, mice implanted with L1210 cells expressing HSV1-sr39tk were scanned by microPET/CT using ^18F-FHBG (FIG. 30B).

The subject of the next series is Baf-3 cells. Description: Test of mutant htk2 reporter genes in Baf-3 cells. The format is cell-based. The source says: The sensitivity of the described mutant htk2 imaging reporter genes can be evaluated through cell culture assays and PET imaging in mouse tumor models. […] Further tests regarding the effect of expressing these reporter genes on various cells can be used to determine other potential targets. […] Several enhanced htk2 mutant reporter genes have been designed and tested. Though the examples herein describe different probes and investigate the L probes mainly in mice, other mammals and in particular, humans are also within the scope of the invention. Silico models can be used to derive additional enhanced mutants from human htk2.
(Reporter assays use an easily measured gene product as a stand-in for the process of interest.)

Series [3] relates to TK2-N93D/L109F-expressing L1210 cells. Put plainly: L-18F-FMAU uptake assay, transduced L1210 cells (TK2-N93D/L109F). Format: cell-based, murine. On the procedure:
The L1210 cell line (see, e.g. Jordheim, L. P., et al. (2004) Clin. Cancer Res. 10, 5614-5621) was a gift. Cells were cultured at 5% v/v CO2 and 37° C. in RPMI supplemented with 5% v/v FCS. Murine stem cell virus (pMSCV)-based helper-free retroviruses encoding the TK2 mutants (or sr39tk), an internal ribosomal entry site, and the yellow fluorescent protein (YFP) were produced by transient co-transfection of the amphotrophic retrovirus packaging cell line Phoenix (American Type Culture Collection, SD 3443) (see, e.g. Hawley, R. G., et al. (1994) Gene. Ther. 1, 136-138). L1210 cells underwent spinfection with the pMSCV-TK2 mutants-internal ribosomal entry site-YFP retrovirus with 2 μg/ml Polybrene (1000×g, 120 min, 37° C.). L1210 cells expressing various PRGs, (L1210-PRG) were FACS-sorted to ensure that each population had equivalent levels of PRG expression.
L1210 cells transduced with the indicated PET reporter genes (L1210-PRG) were seeded at a density of 500,000 cells/well in 24-well plates. 5 μCi of L-^18F-FMAU were added to the L1210-PRG cells simultaneously with the indicated amounts of D-thymidine (D-dT) at a final volume of 1 ml/well. After 1 h at 37° C., cells were harvested and washed four times with ice-cold PBS. Radioactivity was measured using a gamma counter.

For series [4], the system named is L1210 tumors expressing TK2-N93D. Description: microPET/CT of SCID mice bearing L1210-PRG tumors (TK2-N93D). Format: in vivo. The conditions noted are these: for in vivo L-18F-FMAU uptake compared with WT TK2-expressing tumors: 3 h post-injection.
From the text: To compare TK2, TK2-N93D and HSV1-sr39tk in vivo, PRG-expressing L1210 cells were implanted subcutaneously in SCID mice that were then scanned with L-[^18F]FMAU (FIG. 10A) and [^18F]FHBG (FIG. 10C) on consecutive days. […] Signals obtained with sr39tk were slightly higher than those obtained with the human TK2-N93D PRG (the difference was not statistically significant). […] L-[^18F]FMAU accumulation in TK2-N93D transduced tumors was ˜20 times higher than the accumulation in tumors transduced with the control (eYFP only) vector. While this ratio is higher than the 6.67 ratio reported for WT TK2 as a PRG with D-[^18F]FEAU as the PRP (see, e.g. Ponomarev, V., et al. J Nucl Med 48:819-826, 2007), the HSV1-sr39tk/[^18F]FHBG combination still outperforms the TK2-N93D/L-[^18F]FMAU combination by ˜2-fold. The significance of the 2-fold difference for the sensitivity of the new TK2-N93D PRG can be further investigated in the animal models discussed below (see, e.g. Gerth, M. L., et al. Biochem Biophys Res Commun 354:802-807, 2007; Liu, L., et al. Nucleic Acids Res 37:4472-4481, 2009; Iyidogan, P., et al. Biochemistry 47:4711-4720, 2008; Lutz, S., et al. Chimia (Aarau) 63:737-744 2009).
as §1

Entries after “also recorded” stand apart in the source; their conditions may differ.

Regarding `Cc1cn([C@H]2O[C@@H](CO)[C@H](O)[C@H]2[18F])c(=O)[nH]c1=O` [L-^18F-FMAU, 2′-deoxy-2′-^18F-5-methyl-1-β-L-arabinofuranosyluracil], the “tissues with relatively high signals” value in series [1] (2 h post-administration) is “relatively high signals were observed in liver, kidneys, gall bladder, bladder, and the GI tract”. In addition, in series [1] (at 2 h), the “liver activity compared with 18F-FHBG” value is “more intense activity”. In series [1] (first in human study, FIG. 20), the “uptake pattern in healthy volunteer” value is “mainly in its clearance routes, liver and bladder, with relatively low accumulation in intestines and some accumulation in the heart”. Further, the “accumulation in myocardium / heart and liver” value is “accumulation was also observed in the myocardium; also recorded: accumulates in the myocardium and liver” in series [1]; “accumulates in these tissues” in series [1] (listed as L-[^18F]FMAU). In addition, the “intestinal / GI tract activity compared with 18F-FHBG” value in series [1] is recorded as “lower than that of ^18F-FHBG”; in series [1] (listed as 18F-L-FMAU) it was “lower intestinal background”. Besides, the “tracer background within abdomen and pelvis” value is on record as “very low background in abdominal cavity” in series [1] (listed as L-[^18F]-FMAU) and “very low tracer background” in series [1] (listed as L-[^18F]FMAU). Besides, the “probe uptake in L1210 tumors” value in series [2] (L-18F-FMAU, 3 h post-injection) was 19.9±1.5 % injected dose/g. In addition, the “L-18F-FMAU uptake, higher than that of TK2-N93D-expressing cells” value in series [2] (in vivo, FIG. 30C) is given as 2.6 fold. Also, in the series with Baf-3 cells, the “test of reporter system with probe” value is given as “successfully tested”. Also, the “in vitro uptake of 18F-L-FMAU compared to TK2-N0” value in series [3] (TK2-N5 (TK2-N93D/L109F)) is recorded as “two-fold increase”. For the same compound, the “inhibition of uptake by thymidine compared to TK2-N0” value in series [3] (TK2-N5 (TK2-N93D/L109F)) was “less resistance to inhibition by thymidine”. The “L-18F-FMAU uptake, higher than that of TK2-L109F cells” value in series [3] (absence of D-dT) is listed as ~4 times. Besides, the “L-18F-FMAU uptake, higher than that of TK2-N93D cells” value in series [3] (absence of D-dT) is 1.5 times. For the same compound, the “decrease of L-18F-FMAU uptake” value in series [3] (in the presence of 5 μM D-dT) is recorded as 47%. Further, the “in vivo L-18F-FMAU uptake compared with WT TK2-expressing tumors” value was “nearly double” in series [4], “two-fold increase” in series [4] (listed as 18F-L-FMAU) and “improved accumulation” in series [4] (listed as L-[^18F]FMAU). Moreover, in series [4] (3 hrs post-injection), the “L-[18F]FMAU accumulation relative to tumors transduced with control (eYFP only) vector” value is ~20 times.
